In patent US20230192878A1, “METHODS, THERAPIES AND USES FOR TREATING CANCER” (PFIZER INC., priority 2020, published 2023):

Legend:
MM.1S-Luc-PD-L1 = assay: Orthotopic MM.1S-Luc-PD-L1 multiple myeloma mouse model; assay type: in vivo, NSG mice; details: bispecific 10 μg/kg IV once (day 21), anti-PD-1 5 mg/kg IP twice a week
Protocol: MM.1 S-Luc multiple myeloma cells were engineered to express PD-L1 and are referred to as MM.1S-Luc-PD-L1. MM.1S-Luc-PD-L1 cells were prepared as a single cell suspension of 5×10^6 cells for intravenous (IV) inoculation into NSG mice.
Tumor growth was monitored by luminescent imaging by intraperitoneal (IP) injection of luciferin solution in DPBS and imaged using Perkin Elmer IVIS Spectrum camera system. Animals were administered 2×10^7 expanded human T cells IV 19 days after tumor cell inoculation. Two days following T cell administration, a single dose of the BCMAxCD3 bispecific (10 μg/kg) was administered as a bolus IV injection. Anti-PD-1 antibody was administered twice a week as a bolus IP injection at 5 mg/kg for a total of 6 injections.
Tumor growth was monitored via imaging measurements collected twice weekly. Mice were imaged using the Perkin Elmer IVIS Spectrum camera system with automatic parameter determination and a maximum imaging time of 3 minutes. Living Image software was used to collect the data. Regions of Interest (ROIs) were drawn around the entire body of the mouse, excluding as much as possible of the tail. Background flux, as measured on the anesthesia manifold, is subtracted from each ROI. Tumor measurements are expressed as total flux expressed in photons/sec (p/s). Study was terminated at day 40 post tumor inoculation.

[1] = Preliminary pharmacokinetic (PK) analysis, Phase 1 study; assay type: in vivo, human
Protocol: Therefore, a fixed dose is suitable for the dosing of PF-06863135. Based on the encouraging efficacy data and safety data obtained from Part I of Study, a promising RP2D for Part 2A of the study could be a fixed dose equivalent of 1000 μg/kg (i.e., 76 mg) of PF-06863135 either in Q1W or Q2W. A fixed dose equivalent of 600 μg/kg (ie, 44 mg) will likely be used as a priming dose on cycle zero day 1. The initial dose of 44 mg serves as a priming dose and is designed to mitigate the CRS symptoms of the later 76 mg dose. […] Subsequently, the 44 mg (priming) and 76 mg (maintenance) were selected as the single agent RP2D dose. Patient will be administered a single priming dose of 44 mg SC of PF06863135, followed by maintenance dosing of 76 mg Q1W SC or 76 mg Q2W starting 7 days after the single priming dose.

Molp8-luc = assay: BCMAxCD3 bispecific mediated cell killing with human T cells, with or without GSI; assay type: cell-based; details: 60 hours, with or without 1 μM GSI
Protocol: (§1) CD3^+ T cells from PBMCs (Stem Cell Technologies) were negatively selected using EasySep Human T cell enrichment kit (Stem Cell Technologies). Multiple myeloma cells expressing luciferase (MM.1S-luc, OPM2-luc, H929-luc, Molp8-luc, RPM18226-luc) were treated with 1 μM GSI […]. After 24 hours, cells were seeded with 50,000 CD3^+ pan T cells in a clear 96-well V-bottom plate. Cells were further treated with a range of BCMAxCD3 bispecific antibody concentrations with or without 1 μM GSI. 60 hours after treatment, luciferase activity in treated cells was analyzed using NeoLite reagent kit (Perkin Elmer) and acquired on VictorX multimode plate reader (Perkin Elmer). Cell viability was calculated by dividing luciferase activity of treated cells over luciferase activity of untreated control (no BCMAxCD3 bispecific antibody added).

H929-luc = assay: as above; assay type: cell-based; details: 60 hours, with or without 1 μM GSI
Protocol: as §1

RPMI8226 = assay: Soluble BCMA (sBCMA) shedding after GSI (ELISA); assay type: cell-based, Human; set-up: unit not given here; details: Table 6 (sBCMA in supernatant, ELISA), 24 hours
Protocol: (§2) Multiple myeloma cells (MM.1S, OPM2, H929, Molp8, RPMI8226) were seeded in a 96-well U-bottom plate at 40,000 cells/well. Cells were incubated for 24 hours in the presence of GSI diluted in RPMI medium (0.1% DMSO). The following concentrations of the GSI were tested: 1000 nM, 500 nM, 100 nM, 50 nM, 25 nM, 10 nM, 5 nM, 2.5 nM, 1 nM, 0.1 nM, 0.01 nM. After 24 hours, cell culture medium was collected and concentration of sBCMA was measured in supernatants using Human BCMA/TNFRSF17 DuoSet ELISA kit (R&D Systems) according to manufacturer's instructions.

H929 = assay: Soluble BCMA (sBCMA) shedding after GSI (ELISA); assay type: cell-based, Human; set-up: unit not given here; details: Table 6 (sBCMA in supernatant, ELISA), 24 hours
Protocol: as §2

Molp8 = assay: Soluble BCMA (sBCMA) shedding after GSI (ELISA); assay type: cell-based, Human; set-up: unit not given here; details: Table 6 (sBCMA in supernatant, ELISA), 24 hours

## PF-06863135: heterodimeric humanized full-length bispecific antibody with one BCMA binding arm and one CD3 binding arm
MM.1S-Luc-PD-L1; day 15 post tumor cell inoculation
  Tumor measurements expressed as total flux: 1.513 × 10^7 p/s
MM.1S-Luc-PD-L1; day 18 post tumor cell inoculation
  Tumor measurements expressed as total flux: 8.343 × 10^7 p/s
MM.1S-Luc-PD-L1; day 20 post tumor cell inoculation
  Tumor measurements expressed as total flux: 1.788 × 10^8 p/s
MM.1S-Luc-PD-L1; day 25 post tumor cell inoculation
  Tumor measurements expressed as total flux: 2.2729 × 10^7 p/s
MM.1S-Luc-PD-L1; day 28 post tumor cell inoculation
  Tumor measurements expressed as total flux: 7.082 × 10^7 p/s
MM.1S-Luc-PD-L1; day 32 post tumor cell inoculation
  Tumor measurements expressed as total flux: 7.076 × 10^7 p/s
[1]
  Effect of body weight on PF-06863135 exposure: not a clinically relevant factor
Molp8-luc; BCMA × CD3 0.00001 nM
  Molp8 cell viability (% control): 64 ± 11.6 % control
Molp8-luc; BCMA × CD3 0.00005 nM
  Molp8 cell viability (% control): 59.1 ± 4.6 % control
Molp8-luc; BCMA × CD3 0.00026 nM
  Molp8 cell viability (% control): 58.5 ± 0.6 % control
Molp8-luc; BCMA × CD3 0.00128 nM
  Molp8 cell viability (% control): 66.7 ± 0.3 % control
Molp8-luc; BCMA × CD3 0.0064 nM
  Molp8 cell viability (% control): 55.2 ± 1.3 % control
Molp8-luc; BCMA × CD3 0.032 nM
  Molp8 cell viability (% control): 66.1 ± 4.9 % control
Molp8-luc; BCMA × CD3 0.16 nM
  Molp8 cell viability (% control): 8 ± 2 % control
Molp8-luc; BCMA × CD3 0.8 nM
  Molp8 cell viability (% control): 6.1 ± 0.7 % control
Molp8-luc; BCMA × CD3 4 nM
  Molp8 cell viability (% control): 5.2 ± 0.3 % control
H929-luc; BCMA × CD3 0.00001 nM
  H929 cell viability (% control): 80.2 ± 0.3 % control
H929-luc; BCMA × CD3 0.00005 nM
  H929 cell viability (% control): 81.1 ± 0.2 % control
H929-luc; BCMA × CD3 0.00026 nM
  H929 cell viability (% control): 79 ± 0.8 % control
H929-luc; BCMA × CD3 0.00128 nM
  H929 cell viability (% control): 77.8 ± 3.3 % control
H929-luc; BCMA × CD3 0.0064 nM
  H929 cell viability (% control): 81.2 ± 3^ % control
H929-luc; BCMA × CD3 0.032 nM
  H929 cell viability (% control): 98.6 ± 1.2 % control
H929-luc; BCMA × CD3 0.16 nM
  H929 cell viability (% control): 23.2 ± 7.2 % control
H929-luc; BCMA × CD3 0.8 nM
  H929 cell viability (% control): 11.3 ± 1.5 % control
H929-luc; BCMA × CD3 4 nM
  H929 cell viability (% control): 8.6 ± 3 % control

## CCC[C@H](N[C@H]1CCc2cc(F)cc(F)c2C1)C(=O)Nc1cn(C(C)(C)CNCC(C)(C)C)cn1 [GSI, nirogacestat]
RPMI8226; RPMI8226, GSI 0.01 nM
  BCMA (-PE) MFI: 4710.8
RPMI8226; RPMI8226, GSI 0.1 nM
  BCMA (-PE) MFI: 3333.8
RPMI8226; RPMI8226, GSI 1 nM
  BCMA (-PE) MFI: 2647.5
RPMI8226; RPMI8226, GSI 2.5 nM
  BCMA (-PE) MFI: 2398
RPMI8226; RPMI8226, GSI 5 nM
  BCMA (-PE) MFI: 2525.6
RPMI8226; RPMI8226, GSI 10 nM
  BCMA (-PE) MFI: 1926.2
RPMI8226; RPMI8226, GSI 25 nM
  BCMA (-PE) MFI: 836.5
RPMI8226; RPMI8226, GSI 50 nM
  BCMA (-PE) MFI: 249.5
RPMI8226; RPMI8226, GSI 100 nM
  BCMA (-PE) MFI: 64.1
RPMI8226; RPMI8226, GSI 500 nM
  BCMA (-PE) MFI: 0 ± 0
RPMI8226; RPMI8226, GSI 1000 nM
  BCMA (-PE) MFI: 0 ± 0
H929; H929, GSI 0.01 nM
  BCMA (-PE) MFI: 24084.8
H929; H929, GSI 0.1 nM
  BCMA (-PE) MFI: 27414.8
H929; H929, GSI 1 nM
  BCMA (-PE) MFI: 19516.4
H929; H929, GSI 2.5 nM
  BCMA (-PE) MFI: 12874.8
H929; H929, GSI 5 nM
  BCMA (-PE) MFI: 8438.2
H929; H929, GSI 10 nM
  BCMA (-PE) MFI: 4901.7
H929; H929, GSI 25 nM
  BCMA (-PE) MFI: 2336.4
H929; H929, GSI 50 nM
  BCMA (-PE) MFI: 1460.7
H929; H929, GSI 100 nM
  BCMA (-PE) MFI: 1110.6
H929; H929, GSI 500 nM
  BCMA (-PE) MFI: 716.5
H929; H929, GSI 1000 nM
  BCMA (-PE) MFI: 625.1
Molp8; Molp8, GSI 0.01 nM
  BCMA (-PE) MFI: 6887.3
Molp8; Molp8, GSI 0.1 nM
  BCMA (-PE) MFI: 6363.4
Molp8; Molp8, GSI 1 nM
  BCMA (-PE) MFI: 6072.9
Molp8; Molp8, GSI 2.5 nM
  BCMA (-PE) MFI: 6765.5
Molp8; Molp8, GSI 5 nM
  BCMA (-PE) MFI: 5989.3
Molp8; Molp8, GSI 10 nM
  BCMA (-PE) MFI: 5958.9
Molp8; Molp8, GSI 25 nM
  BCMA (-PE) MFI: 3021.7
Molp8; Molp8, GSI 50 nM
  BCMA (-PE) MFI: 1044.3
Molp8; Molp8, GSI 100 nM
  BCMA (-PE) MFI: 431.8
Molp8; Molp8, GSI 500 nM
  BCMA (-PE) MFI: 87.3
Molp8; Molp8, GSI 1000 nM
  BCMA (-PE) MFI: 51.6
